Where a chain is given by its changes, count along the chain named.

By Kd is commonly meant the free concentration of one partner at which half of the binding sites on the other are occupied at equilibrium, for simple one-to-one binding.

For one test, the target named is T1, hPAH (Homo sapiens, UniProt P00439).
T1 sequence (P00439 1-452): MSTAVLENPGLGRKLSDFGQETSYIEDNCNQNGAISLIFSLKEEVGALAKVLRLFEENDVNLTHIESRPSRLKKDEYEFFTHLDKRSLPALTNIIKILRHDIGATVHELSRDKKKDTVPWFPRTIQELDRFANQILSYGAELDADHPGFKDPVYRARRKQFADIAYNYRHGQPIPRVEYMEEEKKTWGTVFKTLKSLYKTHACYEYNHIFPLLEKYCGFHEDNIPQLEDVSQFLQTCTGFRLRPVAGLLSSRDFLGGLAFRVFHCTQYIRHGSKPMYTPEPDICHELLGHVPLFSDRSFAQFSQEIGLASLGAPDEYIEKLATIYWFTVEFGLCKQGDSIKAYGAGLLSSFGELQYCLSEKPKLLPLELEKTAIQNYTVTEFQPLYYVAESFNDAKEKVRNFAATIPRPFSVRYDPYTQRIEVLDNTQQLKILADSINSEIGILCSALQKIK
Briefly: SPR screening and affinity determination on immobilized hPAH (Biacore T200). The note with it: SPR, 25° C., compound 0-500 μM in 5% DMSO; affinities said to be overestimated, relative KD reliable; read-out: KD (μM) ± SER. Format: binding. Here is the method: For detailed determination of binding affinity of Compound 53 and derivatives (FIG. 4) SPR was performed on a Biacore T200 (GE Healthcare Life Sciences) at a temperature of 25° C. A hPAH solution at 0.08 μg/μl in a final volume of 200 μl in acetate buffer pH 5.0 was immobilized onto series S sensor chip CM5 by the standard amine coupling procedure at a flow rate of 30 μl/min and PBS-P+ buffer as running buffer aiming for RU 20000. After the coupling reaction the surface of the sensor chip was washed to eliminate unbound species with HBS buffer (0.01 M NaHepes pH 7.4, 0.15 M NaCI) at steady flow of 20 μl/min for 1 hour until the baseline drift was around 0.05 RU/s; note that an early injection of 40 μl dithiothreitol (DTT) 10 mM in HBS allowed for this reduced washing time.
For the screening, compounds were assayed at a concentration of 200 μM, with 5% DMSO in duplicates, including negative controls with 5% DMSO, positive controls, with 200 μM BH2 and solvent correction was also performed. For KD calculations, a compound concentration 0-500 μM (in 5% DMSO) were applied at otherwise analogous experimental design and analyses were performed using Biacore T200 Evaluation Software, version 2.0 (GE Healthcare Life Sciences).
All the responses from the compounds of the screening were subjected to blank subtraction (negative control 5% DMSO), molecular weight adjustment and solvent correction to account for differences in bulk response. Next a cut-off value for the screening was selected based on the response of the positive control of our experiments: RU BH2+3*SD (2.88+3*1.79=8.27). In this manner, from the 11 derivatives of Compound 53 tested (see FIG. 4) we weeded out those compounds with a lower response than 8.27, namely #53.2, #53.9 and #53.11.
In addition and for the rest of the compounds which continued our workflow, binding affinities were determined and the results are shown in the following table. The selected conditions to measure affinity are selected for high throughput measurements, but the affinities are overestimated though the relative KD for the different compounds are reliable.

The target of another test is T2, human wild-type PAH (Homo sapiens, UniProt P00439).
T2 construct: expressed in transfected cells
T2 sequence (P00439 1-452): T1 sequence (P00439 1-452)
In words: PAH immunoreactive protein level (Western blot) in HEK293 cells permanently expressing human wild-type PAH. Format: cell-based. The conditions noted are these: 0.04 mg/ml (average 116.7 μM), 1% DMSO, 8 h. Here is the method:
Human embryonic kidney cells (HEK293; Life Technologies™) permanently expressing WT-hPAH, prepared with the Flp-In system (Life Technologies™) were kindly provided by Per Knappskog, Haukeland University Hospital. About 1 million cells were grown in DMEM medium containing 4.5 g/l glucose, 10% (v/v) fetal calf serum, 0.25 mg/ml gentamycine, 2 mM L-glutamine and 50 μg/ml hygromycin B, and after 24 h medium was changed and the test compounds were added at a concentration of 0.02 mg/ml (1% DMSO). Eight hours later, the cells were harvested, and the pellets frozen in dry ice and stored at −80° C. […] To prepare the cell extracts, the frozen cell pellets were thawed in TBS (+protease inhibitor) buffer and cells were homogenized with 0.1% TX-100, incubated 15 minutes at 4° C. and extracts were clarified by centrifugation 20000 g for 15 min at 4° C. Protein concentrations were normalized using a Direct Detect Spectrometer (Merck Millipore).
The 7 selected compounds as well as the first generation pharmacological chaperones (Compounds III and IV) were further analyzed in the presence and absence of BH2 (200 μM), added as precursor of BH4, to account for additive effects. A higher concentration of compound was also used 0.04 mg/ml (average of 116.7 μM) at otherwise same experimental conditions.
For orientation: A western blot detects proteins with antibodies after separation by electrophoresis.

Test [1] deals with tryptophan hydroxylase 2 (TPH2) (Homo sapiens, UniProt Q8IWU9). The conditions noted are these: 68.9 μM, respect to 2% DMSO controls.
tryptophan hydroxylase 2 (TPH2), sequence (Q8IWU9 whole entry, species assumed): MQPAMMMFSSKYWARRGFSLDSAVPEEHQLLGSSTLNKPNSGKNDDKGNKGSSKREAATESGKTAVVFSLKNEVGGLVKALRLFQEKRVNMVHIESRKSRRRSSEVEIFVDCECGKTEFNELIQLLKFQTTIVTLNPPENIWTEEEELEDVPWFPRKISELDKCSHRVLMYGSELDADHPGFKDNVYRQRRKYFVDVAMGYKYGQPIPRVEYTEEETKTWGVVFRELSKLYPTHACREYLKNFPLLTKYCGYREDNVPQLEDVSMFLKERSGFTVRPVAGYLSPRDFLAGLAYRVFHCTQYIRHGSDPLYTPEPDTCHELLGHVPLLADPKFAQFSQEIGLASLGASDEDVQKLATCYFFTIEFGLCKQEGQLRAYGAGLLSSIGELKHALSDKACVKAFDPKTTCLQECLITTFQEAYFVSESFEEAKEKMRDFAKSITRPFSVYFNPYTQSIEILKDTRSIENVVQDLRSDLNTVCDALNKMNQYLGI
Another test addresses T3, I65T-PAH (Homo sapiens, UniProt P00439, I65T).
T3 construct: expressed in transfected cells; host or cells: HEK293 EBNA, transient, pcDNA3-PAH
T3 sequence (P00439 1-452 I65T): T1 sequence (P00439 1-452) with I65T
Briefly: PAH protein level and activity in HEK293 EBNA cells transiently expressing PKU mutant I65T. Type of test: cell-based. The note with it: 24 h. Here is the method:
Cell lysates were prepared as indicated above.

In the case of `COc1cc(Cc2cnc(N)nc2N)cc(OC)c1OC` [c53, trimethoprim], the equilibrium dissociation constant (Kd) at hPAH was 58.5 ± 35.8 µM. For the same molecule, at human wild-type PAH, the “effect on PAH protein (FIG. 1A)” value was “very large stimulating effect”. The “effect on TPH2 activity” value in test [1] is given as “did not have large effect”. In addition, the “protein and activity, mutant I65T, Compound 53 and BH2 together” value on I65T-PAH (200 μM each) is given as “trends for additive effects”. In addition, on I65T-PAH (200 μM, 1% DMSO), the “PAH activity, mutant I65T” value is on record as “greatly increased” and the “hPAH protein level, mutant I65T” value is given as “greatly increased”.

Values taken from patent US10265303B2, “Hyperphenylalaninemia and treatments thereof” (BERGEN TEKNOLOGIOVERFØRING AS, priority 2015, dated 2019).
